From US5770563A, “Heparin- and sulfatide binding peptides from the type I repeats of human thrombospondin and conjugates thereof” (The United States of America as represented by the …, priority 1995, dated 1998)
Square brackets hold non-standard residues; d marks the D form. Ends that are not written are not given here. Peptide text beside a SMILES is read from it.

Assays:
Solubility = format: physicochemical
[1] = system: thrombospondin binding to heparin; assay: Inhibition of 125I-thrombospondin binding to immobilized heparin-BSA; set-up: species or system human
Procedure, shortened: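 Solid-phase binding: heparin-BSA (0.2 μg/well) adsorbed 2 h at 37° in Dulbecco's PBS, blocked with tris-BSA. Peptides in 50 mM tris pH 7.8, NaCl, 1 mM CaCl2, 0.025% NaN3, 1% BSA mixed with 125I-thrombospondin (added at 0.2 μg/ml), 3 h at 4°; after saline washes, bound radioactivity counted.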

AIDS-KS lesion = assay: Kaposi's sarcoma angiogenic lesion formation in nude mice; format: in vivo; conditions: intravenous, nude mouse
Procedure: For determination of In vivo Angiogenesis, 2×10^6 AIDS-KS cells suspended in phosphate buffered saline without calcium and magnesium (PBS w/o), passage 6-8, were transplanted subcutaneously on day 0 of the flanks of male Balb/c nu/nu athymic mice. The animals were injected intravenously with increasing dilutions of TSP peptide-FICOLL conjugates or the equivalent concentrations of FICOLL mixed in PBS w/o as a control from days 1-5. On day 6 the angiogenic lesions were observed, measured, fixed in 10% formalin, and stained with hematoxylin-eosin.

MDA MB435 tumor = assay: MDA MB435 orthotopic tumor growth in nude mice; format: in vivo, mouse
Procedure: (§1) Tumor cells were allowed to implant for approximately one to three weeks prior to administering the peptide analog or a polysucrose conjugate. […] The inhibitory effect persisted beyond the treatment period, although the growth of the tumors eventually resumed.
The presented experiment consisted of two groups of animals. The objective was to test a peptide conjugate for effects on breast carcinoma growth. The treated animals were injected with MDA435 cells alone on day one and then injected intravenously with drugs from day 10 through approximately day 30. Tumor growth and frequency of metastasis were determined in both groups.
NIH Nu/Nu mice, approximately eight weeks of age are injected with 10^5 MDA MB435 cells by the mammary fat pad route. Mice were anesthetized with 150-200 μl i.p. of a 1:80 dilution in PBS of a solution containing 25 g. tribromoethanol in 12.5 ml tertiary amyl alcohol. The mammary fat pad was cleaned with ethanol and a 10 mm incision was made directly above the site of injection. Mammary fat pad #4 could be observed beneath the skin after the incision was made. Using a 0.1 ml Hamilton syringe and 27 gauge 1/2" needle, 10 μl of cell suspension, 1×10^5 cells in HBSS, are injected into the fat pad. The incision is closed using 1-2 Autoclips ([…], Clay Adams). Autoclips are removed 7 days post-injection and scarring is minimal.
Six animals were injected for each condition, per experiment. Animals were earpunched after injection for subsequent identification. Beginning at day 10 and continuing every day until approximately day 30, the experimental animals were injected i.v. (tail vein) with 0.1 ml of the FICOLL conjugate. Primary tumor size was determined twice weekly by length×width×height measurement, and the animals are observed daily for general health. When the primary tumor of any animal exceeded 20 mm in any dimension, all of the animals were sacrificed. The presence of metastases was determined by gross autopsy and examination of H & E stained sections of any suspicious organ and step sections of the lungs and draining lymph nodes. The primary tumors were removed, stripped free of other tissues, and weighed. At any time during the experiment, animals suspected of being in distress were sacrificed and examined as above.

[2] = system: bovine aortic endothelial cells; assay: Proliferation of bovine aortic endothelial cells; format: cell-based; conditions: free peptide, 40 μM
Procedure: (§2) Endothelial cell proliferation was measured using the CELL TITER 96™ assay (Promega, Madison, Wis.). 5×10^3 cells were plated into each well of a 96-well culture plate in 0.5 or 5% FCS-containing medium together with the indicated concentrations of growth effectors. After 72 h, 15 μl of dye solution was added to each well, and the plates were incubated for an additional 4 h. Solubilization solution was added, and absorbance at 570 nm was determined after 24 h as described by the manufacturer.
FICOLL conjugates of peptide 353 (SEQ ID NO:28) (GGWSHWSPWSSC), 354 (SEQ ID NO:29) (CGGWSHWSPWSS), 224 364 g (SEQ ID NO:30) and 387 (SEQ ID NO:30) (three syntheses of KRFKQDGGWSHWSPWSSC), or free FICOLL were tested at the indicated concentrations as inhibitors of proliferation of bovine aortic endothelial cells in DMEM medium containing 0.5% (FIG. 24A) or 5% (FIG. 24B) fetal calf serum. […] Therefore, the conjugates are general inhibitors of both large and small vessel endothelial cell proliferation. […]
Proliferation of bovine aortic endothelial cells was also determined for cells grown in the presence of the indicated concentrations of peptide 246 (KRFKQDGGWSHWSPWSS) (SEQ ID NO:19) or peptide 416 (retro-inverso) in RPMI-HITES (reg medium) or corresponding conditioned medium from MDA 435 breast carcinoma cells. […]

[3] = system: MDA MB435 breast carcinoma cells; assay: MDA MB435 human breast carcinoma cell proliferation; format: cell-based; conditions: free peptide
Procedure: Human breast carcinoma cells MDA MB435 (American Type Culture Collection) were grown in RPMI 1640 medium containing 10% fetal calf serum. Proliferation was determined as described in FIG. 18 and 44A, B and C.
Human breast carcinoma cells MDA MB435 (American Type Culture Collection) were grown in RPMI 1640 medium containing 10% fetal calf serum. Proliferation was determined in the presence of 0.5% fetal calf serum and bFGF as described in FIG. 19.

Toxicity in nude mice = format: in vivo, mouse; conditions: free peptide, up to 10 mg/kg
From the text: as §1
Based on published studies of related peptide conjugates (Braatz J. A., Yashuda Y., Olden K., Yamada K. M., Heifetz A. H. (1993): Functional peptide-polyurethane conjugates with extended circulatory half lives. Bioconjugate Chem 4:262-267), the conjugates are predicted have circulating half lives on the order of 10 hours. Free peptides usually have circulating half lives of less than 10 minutes, based on published results. The short half lives were due to clearance or stability of the peptides in plasma. Use of nonhydrolyzable amino acid analogs or capping modifications of the peptides decreases sensitivity to degradation.

[4] = system: bovine corneal endothelial cells; format: cell-based
Procedure: Corneal bovine endothelial cells (BCE cells) were used at passages 2 through 8 (Munjal et al., 1990). BCE cell cultures were maintained in DMEM (low glucose), containing 10% FCS, 4 mM glutamine, 2.5 μg/ml amphotericin B, and 500 U/ml each of penicillin G potassium and streptomycin sulfate (all media components were from Biofluids Inc., Rockville, Md.). BCE cells were grown at 34° in 5% CO2. The media were changed every 2-3 days.
as §2

AIDS-KS cells [5] = assay: AIDS-KS cell chemotaxis, modified Boyden chamber; format: cell-based, human
Procedure: Directed migration (chemotaxis) and general migration (chemokinesis) of AIDS-KS cells in culture was measured by the modified Boyden chamber assay using fibronectin coated […] Nucleopore filters as previously described. In brief, the AIDS-KS cells, were trypsinized then resuspended in RPMI 1640 containing […] (GIBCO-BRL) and 20% activated lymphocyte conditioned medium. The trypsinized cells were allowed to recover in suspension for 2 hours, then the cells were recovered by centrifugation and resuspended in RPMI 1640 containing 0.1% BS at 5×10^5 cells/ml prior to adding 100 μl to the upper wells in the chemotaxis chamber. Migration to BSA (0.1%) and OSM was performed in the presence of the indicated concentrations of TSP, and TSP peptide-FICOLL conjugates. After 3 hours incubation at 37° C. filters were stained with Diff Quick (Merz-Dade, Dudingen, Switzerland), and the migrated cells in ten high-power fields were counted. The values are triplicate determinations and the bars indicate standard deviations, n=3.

AIDS-KS cells [6] = assay: AIDS-KS cell proliferation; format: cell-based, human
Procedure: AIDS-KS cell strains were cultured as previously described (Nakamura, S. et al. "Kaposi's Sarcoma Cells: Long-Term Culture with Growth Factor From Retrovirus-Infected CD4+T Cells", Science, (1988) 242:426; and Salahuddin, S. Z. et al. "Angiogenic Properties of kaposi's Sarcoma-Derived Cells After Long-Term Culture In Vitro", Science (1988) 242:430). TSP was purified from thrombin-stimulated human platelets as described. TSP peptides and peptide conjugates were synthesized corresponding to sequences of human TSP as described.
For the cell proliferation assays 1×10^3 cells/well were seeded in triplicate in 24 well flat bottom plates (Falcon, Franklin Lakes, N.J.) that contained the required dilutions of TSP, TSP peptide-FICOLL conjugates, and growth factors: 1) Oncostatin M (OSM) (PreProtech) at 25 ng/ml, or 2) activated lymphocyte conditioned medium (AL-CM) at 20%. After 7 days, the cells were trypsinized and counted using a Coulter Zm Cell Counter (Coulter Corporation). The values are triplicate determinations and the bars indicate standard deviations, n=3.

[7] = polysucrose/FICOLL conjugate, intravenous

Q: For CC(=O)N[C@@H](CCCCN)C(=O)N[C@@H](CCCNC(=N)N)C(=O)N[C@@H](C)C(=O)N[C@@H](CCCCN)C(=O)N[C@@H](C)C(=O)N[C@@H](C)C(=O)NCC(=O)NCC(=O)N[C@@H](Cc1c[nH]c2ccccc12)C(=O)N[C@@H](CO)C(=O)N[C@@H](Cc1c[nH]cn1)C(=O)N[C@@H](Cc1c[nH]c2ccccc12)C(=O)N[C@@H](C)C(=O)N[C@@H](CO)C(=O)N[C@@H](CS)C(N)=O [acKRAKAAGGWSHWASCam] (Ac-KRAKAAGGWSHWASC-NH2), which solubility characteristics (Solubility) is on record?
A: Its solubility characteristics is “good activity and solubility characteristics”.

Q: What about the “inhibition of thrombospondin binding to heparin, in words” value ([1]; free peptide) of the same compound?
A: The value was “good activity”.

Q: With “364f: KRFKQDGGWSHWSPWSSC conjugated to FICOLL, several preparations (also: conjugated to FICOLL) [Peptide 364f]” as the compound, how does the AIDS-KS lesion formation (AIDS-KS lesion) read?
A: Its AIDS-KS lesion formation is “strongly inhibited AIDS-KS lesion formation”.

Q: And the tumor growth (MDA MB435 tumor; [7])?
A: The tumor growth was “delays tumor growth”.

Q: Which results are given for CC(=O)N[C@H](CS)C(=O)N[C@H](CO)C(=O)N[C@H](CO)C(=O)N[C@H](Cc1c[nH]c2ccccc12)C(=O)N1CCC[C@@H]1C(=O)N[C@H](CO)C(=O)N[C@H](Cc1c[nH]c2ccccc12)C(=O)N[C@H](Cc1c[nH]cn1)C(=O)N[C@H](CO)C(=O)N[C@H](Cc1c[nH]c2ccccc12)C(=O)NCC(=O)NCC(=O)N[C@H](CC(=O)O)C(=O)N[C@H](CCC(N)=O)C(=O)N[C@H](CCCCN)C(=O)N[C@H](Cc1ccccc1)C(=O)N[C@H](CCCNC(=N)N)C(=O)N[C@H](CCCCN)C(N)=O [Peptide 416, ri-amKRFKQDGGWSHWSPWSSCac] (Ac-[dC][dS][dS][dW][dP][dS][dW][dH][dS][dW]GG[dD][dQ][dK][dF][dR][dK]-NH2)?
A: inhibition of aortic endothelial cell proliferation, in words [2]: significantly inhibit proliferation; inhibition of MDA MB435 proliferation, in words [3]: substantial inhibition of MDA cell proliferation; inhibition of thrombospondin binding to heparin, in words ([1]; FICOLL conjugate): active; inhibition of thrombospondin binding to heparin, in words ([1]; free peptide): retains heparin-binding activity; inhibition of thrombospondin binding to heparin, in words ([1]; free peptide, listed as all D-acCSSWPSWHSWGGDQKFRKam): retained full activity; activity relative to the native sequence ([1]; free retro-inverso peptide): approximately three-fold less; IC50 ([1]; retro-inverso peptides, free, read-out: IC50 Inhibitory Activity, Free Peptide): 400 nM; tumor growth, dose response (MDA MB435 tumor; 0.2 to 6 mg/kg, treatment with 6 mg/kg): maximal inhibition of tumor growth; tumor growth (MDA MB435 tumor; free peptide, daily intravenous, 2 mg/kg): significantly inhibited tumor growth; tumor growth (MDA MB435 tumor; [7]): No significant inhibition of tumor growth; toxicity (Toxicity in nude mice): without overt toxicity

Q: With N=C(N)NCCC[C@H](NC(=O)[C@@H](N)CCCCN)C(=O)N[C@@H](Cc1ccccc1)C(=O)N[C@@H](CCCCN)C(=O)N[C@@H](CCC(N)=O)C(=O)N[C@@H](CC(=O)O)C(=O)NCC(=O)NCC(=O)N[C@@H](Cc1c[nH]c2ccccc12)C(=O)N[C@@H](CO)C(=O)N[C@@H](Cc1c[nH]cn1)C(=O)N[C@@H](Cc1c[nH]c2ccccc12)C(=O)N[C@@H](CO)C(=O)N1CCC[C@H]1C(=O)N[C@@H](Cc1c[nH]c2ccccc12)C(=O)N[C@@H](CO)C(=O)N[C@@H](CO)C(=O)O [Peptide 246, KRFKQDGGWSHWSPWSS] (H-KRFKQDGGWSHWSPWSS-OH) as the compound, how does the IC50 [4] read?
A: The IC50 was 40000 nM.

Q: With “TSP: thrombospondin purified from thrombin-stimulated human platelets” as the compound, how does the “stimulation of AIDS-KS cell motility” value (AIDS-KS cells [5]; added in the lower well) read?
A: Its value is “dose-dependent stimulation of AIDS-KS cell motility”.

Q: What about the IC50 (AIDS-KS cells [5]; added with OSM, read-out: IC50 inhibition of OSM stimulated migration) of the same compound?
A: Its IC50 is less than 110 nM.

Q: And the “inhibition of AIDS-KS cell proliferation, in words” value (AIDS-KS cells [6])?
A: The value was “concentration dependent decrease in cell number”.
